Columns and labels:
Assay in all cases: KinomeScan
Type in all cases: binding
Settings in all cases: 1uM
JNK3 = biological target: T1, JNK3 (Homo sapiens, UniProt P53779)
T1 construct: purchased DiscoveRx KINOMEscan

p38-beta = biological target: T2, p38-beta (Homo sapiens, UniProt Q15759)
T2 construct: purchased DiscoveRx KINOMEscan

[1] = biological target: T3, ABL1(T315I)-phosphorylated (Homo sapiens, UniProt P00519, T315I)
T3 construct: purchased DiscoveRx KINOMEscan

NIK = biological target: T4, NIK (Homo sapiens, UniProt Q99558)
T4 construct: purchased DiscoveRx KINOMEscan

MRCKA = biological target: T5, MRCKA (Homo sapiens, UniProt Q5VT25)
T5 construct: purchased DiscoveRx KINOMEscan

MAP3K3 = biological target: T6, MAP3K3 (Homo sapiens, UniProt Q99759)
T6 construct: purchased DiscoveRx KINOMEscan

DCAMKL2 = biological target: T7, DCAMKL2 (Homo sapiens, UniProt Q8N568)
T7 construct: purchased DiscoveRx KINOMEscan

[2] = biological target: RPS6KA4(Kin.Dom.2-C-terminal) (Homo sapiens, UniProt O75676)
TIE1 = biological target: T8, TIE1 (Homo sapiens, UniProt P35590)
T8 construct: purchased DiscoveRx KINOMEscan

[3] = biological target: T9, JAK1(JH2domain-pseudokinase) (Homo sapiens, UniProt P23458)
T9 construct: JAK1(JH2domain-pseudokinase); purchased DiscoveRx KINOMEscan

SRMS = biological target: T10, SRMS (Homo sapiens, UniProt Q9H3Y6)
T10 construct: purchased DiscoveRx KINOMEscan

STK33 = biological target: T11, STK33 (Homo sapiens, UniProt Q9BYT3)
T11 construct: purchased DiscoveRx KINOMEscan

LRRK2(G2019S) = biological target: T12, LRRK2(G2019S) (Homo sapiens, UniProt Q5S007, G2019S)
T12 construct: purchased DiscoveRx KINOMEscan

ERK3 = biological target: T13, ERK3 (Homo sapiens, UniProt Q16659)
T13 construct: purchased DiscoveRx KINOMEscan

TBK1 = biological target: T14, TBK1 (Homo sapiens, UniProt Q9UHD2)
T14 construct: purchased DiscoveRx KINOMEscan

MYLK = biological target: T15, MYLK (Homo sapiens, UniProt Q15746)
T15 construct: purchased DiscoveRx KINOMEscan

PKAC-beta = biological target: T16, PKAC-beta (Homo sapiens, UniProt P22694)
T16 construct: purchased DiscoveRx KINOMEscan

CDKL5 = biological target: T17, CDKL5 (Homo sapiens, UniProt O76039)
T17 construct: purchased DiscoveRx KINOMEscan

PIK3CA(H1047Y) = biological target: T18, PIK3CA(H1047Y) (Homo sapiens, UniProt P42336, H1047Y)
T18 construct: purchased DiscoveRx KINOMEscan

RIPK2 = biological target: T19, RIPK2 (Homo sapiens, UniProt O43353)
T19 construct: purchased DiscoveRx KINOMEscan

ICK = biological target: T20, ICK (Homo sapiens, UniProt Q9UPZ9)
T20 construct: purchased DiscoveRx KINOMEscan

NEK11 = biological target: T21, NEK11 (Homo sapiens, UniProt Q8NG66)
T21 construct: purchased DiscoveRx KINOMEscan

DRAK2 = biological target: T22, DRAK2 (Homo sapiens, UniProt O94768)
T22 construct: purchased DiscoveRx KINOMEscan

PDGFRB = biological target: T23, PDGFRB (Homo sapiens, UniProt P09619)
T23 construct: purchased DiscoveRx KINOMEscan

[4] = biological target: T24, JAK1(JH1domain-catalytic) (Homo sapiens, UniProt P23458)
T24 construct: JAK1(JH1domain-catalytic); purchased DiscoveRx KINOMEscan

DLK = biological target: T25, DLK (Homo sapiens, UniProt Q12852)
T25 construct: purchased DiscoveRx KINOMEscan

BMX = biological target: T26, BMX (Homo sapiens, UniProt P51813)
T26 construct: purchased DiscoveRx KINOMEscan

[5] = biological target: T27, TYK2(JH1domain-catalytic) (Homo sapiens, UniProt P29597)
T27 construct: TYK2(JH1domain-catalytic); purchased DiscoveRx KINOMEscan

CAMK4 = biological target: T28, CAMK4 (Homo sapiens, UniProt Q16566)
T28 construct: purchased DiscoveRx KINOMEscan

FRK = biological target: T29, FRK (Homo sapiens, UniProt P42685)
T29 construct: purchased DiscoveRx KINOMEscan

TRPM6 = biological target: T30, TRPM6 (Homo sapiens, UniProt Q9BX84)
T30 construct: purchased DiscoveRx KINOMEscan

PHKG2 = biological target: T31, PHKG2 (Homo sapiens, UniProt P15735)
T31 construct: purchased DiscoveRx KINOMEscan

p38-gamma = biological target: T32, p38-gamma (Homo sapiens, UniProt P53778)
T32 construct: purchased DiscoveRx KINOMEscan

CSNK1A1 = biological target: T33, CSNK1A1 (Homo sapiens, UniProt P48729)
T33 construct: purchased DiscoveRx KINOMEscan

[6] = biological target: T34, EGFR(L747-E749del, A750P) (Homo sapiens, UniProt P00533, A750P/DEL747-749)
T34 construct: purchased DiscoveRx KINOMEscan

AMPK-alpha2 = biological target: T35, AMPK-alpha2 (Homo sapiens, UniProt P54646)
T35 construct: purchased DiscoveRx KINOMEscan

FYN = biological target: T36, FYN (Homo sapiens, UniProt P06241)
T36 construct: purchased DiscoveRx KINOMEscan

PAK7 = biological target: T37, PAK7 (Homo sapiens, UniProt Q9P286)
T37 construct: purchased DiscoveRx KINOMEscan

CSNK1A1L = biological target: T38, CSNK1A1L (Homo sapiens, UniProt Q8N752)
T38 construct: purchased DiscoveRx KINOMEscan

MERTK = biological target: T39, MERTK (Homo sapiens, UniProt Q12866)
T39 construct: purchased DiscoveRx KINOMEscan

NEK5 = biological target: T40, NEK5 (Homo sapiens, UniProt Q6P3R8)
T40 construct: purchased DiscoveRx KINOMEscan

BUB1 = biological target: T41, BUB1 (Homo sapiens, UniProt O43683)
T41 construct: purchased DiscoveRx KINOMEscan

T29 sequence (P42685 whole entry): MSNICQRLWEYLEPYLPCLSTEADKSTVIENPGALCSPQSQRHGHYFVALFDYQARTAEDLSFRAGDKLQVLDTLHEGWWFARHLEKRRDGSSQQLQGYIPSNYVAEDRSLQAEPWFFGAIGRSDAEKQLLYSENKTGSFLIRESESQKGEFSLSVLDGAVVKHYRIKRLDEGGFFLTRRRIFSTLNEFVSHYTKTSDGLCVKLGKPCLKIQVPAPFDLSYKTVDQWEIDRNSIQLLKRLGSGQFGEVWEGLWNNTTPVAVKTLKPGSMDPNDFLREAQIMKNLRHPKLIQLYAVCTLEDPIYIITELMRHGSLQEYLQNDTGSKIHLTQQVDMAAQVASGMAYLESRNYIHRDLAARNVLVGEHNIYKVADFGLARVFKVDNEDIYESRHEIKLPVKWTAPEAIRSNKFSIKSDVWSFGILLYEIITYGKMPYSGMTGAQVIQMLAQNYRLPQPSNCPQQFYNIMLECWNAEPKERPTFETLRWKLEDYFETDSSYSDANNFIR
T9 sequence (P23458 583-855 limits assumed): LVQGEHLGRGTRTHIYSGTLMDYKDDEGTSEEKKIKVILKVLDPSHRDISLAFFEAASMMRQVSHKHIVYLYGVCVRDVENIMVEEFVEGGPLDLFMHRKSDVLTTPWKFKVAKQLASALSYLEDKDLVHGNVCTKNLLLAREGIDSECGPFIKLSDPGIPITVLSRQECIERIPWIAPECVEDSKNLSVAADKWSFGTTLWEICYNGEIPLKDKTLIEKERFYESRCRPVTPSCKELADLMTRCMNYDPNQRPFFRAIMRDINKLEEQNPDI
T31 sequence (P15735 whole entry): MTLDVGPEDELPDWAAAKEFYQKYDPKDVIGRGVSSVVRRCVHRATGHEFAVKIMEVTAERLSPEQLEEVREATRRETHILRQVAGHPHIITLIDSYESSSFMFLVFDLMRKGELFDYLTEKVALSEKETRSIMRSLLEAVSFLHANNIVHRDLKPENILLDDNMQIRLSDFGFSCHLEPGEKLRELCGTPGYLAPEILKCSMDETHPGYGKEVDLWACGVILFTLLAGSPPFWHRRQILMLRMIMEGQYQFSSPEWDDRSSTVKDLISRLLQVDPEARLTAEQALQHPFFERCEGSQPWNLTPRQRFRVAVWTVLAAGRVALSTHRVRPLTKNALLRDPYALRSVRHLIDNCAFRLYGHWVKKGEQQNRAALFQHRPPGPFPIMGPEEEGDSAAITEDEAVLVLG
RPS6KA4(Kin.Dom.2-C-terminal), sequence (O75676 372-772 limits assumed): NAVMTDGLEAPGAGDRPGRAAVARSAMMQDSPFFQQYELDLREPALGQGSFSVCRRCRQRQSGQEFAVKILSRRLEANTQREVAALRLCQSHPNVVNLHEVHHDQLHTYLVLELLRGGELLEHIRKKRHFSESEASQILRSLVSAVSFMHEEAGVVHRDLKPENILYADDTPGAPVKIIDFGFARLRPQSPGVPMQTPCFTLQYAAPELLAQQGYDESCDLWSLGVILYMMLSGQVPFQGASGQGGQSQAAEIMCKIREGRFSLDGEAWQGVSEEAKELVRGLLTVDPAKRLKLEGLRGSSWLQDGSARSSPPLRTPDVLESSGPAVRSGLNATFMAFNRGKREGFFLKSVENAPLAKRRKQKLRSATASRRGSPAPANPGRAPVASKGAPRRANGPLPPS
T39 sequence (Q12866 21-999): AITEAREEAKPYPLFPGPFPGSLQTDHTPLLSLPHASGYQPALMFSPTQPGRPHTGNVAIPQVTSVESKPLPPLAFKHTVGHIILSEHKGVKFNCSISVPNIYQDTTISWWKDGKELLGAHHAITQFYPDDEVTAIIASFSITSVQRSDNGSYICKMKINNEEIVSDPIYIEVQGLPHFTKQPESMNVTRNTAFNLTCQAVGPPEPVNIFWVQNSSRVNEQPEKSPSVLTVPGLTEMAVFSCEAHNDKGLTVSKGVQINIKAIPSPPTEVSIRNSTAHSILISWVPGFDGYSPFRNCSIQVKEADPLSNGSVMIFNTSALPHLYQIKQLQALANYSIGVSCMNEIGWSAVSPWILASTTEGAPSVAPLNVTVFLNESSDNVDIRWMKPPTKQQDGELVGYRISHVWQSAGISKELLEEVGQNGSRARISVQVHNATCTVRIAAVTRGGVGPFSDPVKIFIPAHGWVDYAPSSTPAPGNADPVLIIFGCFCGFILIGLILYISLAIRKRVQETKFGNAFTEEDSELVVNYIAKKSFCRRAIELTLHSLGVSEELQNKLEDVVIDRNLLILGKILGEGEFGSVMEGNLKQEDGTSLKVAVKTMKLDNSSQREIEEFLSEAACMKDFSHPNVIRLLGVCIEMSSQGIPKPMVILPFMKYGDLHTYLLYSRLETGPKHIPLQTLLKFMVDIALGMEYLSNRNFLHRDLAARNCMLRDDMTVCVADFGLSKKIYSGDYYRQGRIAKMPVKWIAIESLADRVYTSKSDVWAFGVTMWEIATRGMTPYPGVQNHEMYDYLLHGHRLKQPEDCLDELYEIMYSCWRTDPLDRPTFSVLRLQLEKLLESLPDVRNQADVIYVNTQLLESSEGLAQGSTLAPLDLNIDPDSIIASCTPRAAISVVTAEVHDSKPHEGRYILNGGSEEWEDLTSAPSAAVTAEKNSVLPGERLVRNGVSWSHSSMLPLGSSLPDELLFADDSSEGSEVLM
T17 sequence (O76039 whole entry): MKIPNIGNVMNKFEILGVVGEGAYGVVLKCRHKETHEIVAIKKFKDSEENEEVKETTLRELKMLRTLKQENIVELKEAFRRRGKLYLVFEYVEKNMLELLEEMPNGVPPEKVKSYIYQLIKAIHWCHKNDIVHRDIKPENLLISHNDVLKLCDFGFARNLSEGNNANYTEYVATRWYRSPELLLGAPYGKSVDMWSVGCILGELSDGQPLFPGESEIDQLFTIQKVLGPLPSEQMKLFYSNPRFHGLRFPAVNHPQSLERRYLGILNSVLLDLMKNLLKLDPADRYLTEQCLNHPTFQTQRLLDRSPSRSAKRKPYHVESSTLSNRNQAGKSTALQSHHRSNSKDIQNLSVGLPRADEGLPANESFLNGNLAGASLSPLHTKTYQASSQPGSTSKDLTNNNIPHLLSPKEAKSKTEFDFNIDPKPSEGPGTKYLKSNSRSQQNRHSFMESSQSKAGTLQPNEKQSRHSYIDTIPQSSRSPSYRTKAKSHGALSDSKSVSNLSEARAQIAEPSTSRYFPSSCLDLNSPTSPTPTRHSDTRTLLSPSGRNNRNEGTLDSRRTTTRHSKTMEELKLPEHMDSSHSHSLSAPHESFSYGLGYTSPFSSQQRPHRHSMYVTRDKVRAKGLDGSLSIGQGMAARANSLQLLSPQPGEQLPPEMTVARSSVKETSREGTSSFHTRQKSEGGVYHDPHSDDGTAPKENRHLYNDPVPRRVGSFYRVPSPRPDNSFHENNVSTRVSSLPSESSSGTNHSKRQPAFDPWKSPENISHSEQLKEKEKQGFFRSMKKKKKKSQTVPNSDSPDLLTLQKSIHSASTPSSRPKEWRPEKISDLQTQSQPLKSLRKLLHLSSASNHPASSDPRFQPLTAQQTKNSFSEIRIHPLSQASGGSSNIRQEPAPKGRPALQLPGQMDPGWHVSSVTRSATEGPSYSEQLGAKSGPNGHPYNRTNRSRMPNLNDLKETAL
T32 sequence (P53778 whole entry): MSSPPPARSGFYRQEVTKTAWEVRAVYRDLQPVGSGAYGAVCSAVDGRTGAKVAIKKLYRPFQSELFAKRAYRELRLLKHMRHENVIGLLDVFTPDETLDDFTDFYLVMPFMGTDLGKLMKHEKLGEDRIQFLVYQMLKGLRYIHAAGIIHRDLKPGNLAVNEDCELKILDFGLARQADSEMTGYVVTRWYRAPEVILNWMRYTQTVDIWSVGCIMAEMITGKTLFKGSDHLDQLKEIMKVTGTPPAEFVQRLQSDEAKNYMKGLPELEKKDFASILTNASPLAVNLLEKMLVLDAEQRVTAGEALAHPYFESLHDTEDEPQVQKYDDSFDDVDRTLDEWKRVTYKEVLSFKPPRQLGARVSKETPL
T33 sequence (P48729 whole entry): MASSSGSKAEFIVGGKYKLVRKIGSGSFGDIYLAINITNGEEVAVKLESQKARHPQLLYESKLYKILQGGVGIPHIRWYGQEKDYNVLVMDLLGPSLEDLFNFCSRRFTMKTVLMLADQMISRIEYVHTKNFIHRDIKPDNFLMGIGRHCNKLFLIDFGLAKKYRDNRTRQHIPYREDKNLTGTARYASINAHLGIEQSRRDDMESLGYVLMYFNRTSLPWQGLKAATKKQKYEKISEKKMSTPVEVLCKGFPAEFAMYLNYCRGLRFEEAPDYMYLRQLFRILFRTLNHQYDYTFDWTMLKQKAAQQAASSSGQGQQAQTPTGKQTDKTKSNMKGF
T14 sequence (Q9UHD2 whole entry): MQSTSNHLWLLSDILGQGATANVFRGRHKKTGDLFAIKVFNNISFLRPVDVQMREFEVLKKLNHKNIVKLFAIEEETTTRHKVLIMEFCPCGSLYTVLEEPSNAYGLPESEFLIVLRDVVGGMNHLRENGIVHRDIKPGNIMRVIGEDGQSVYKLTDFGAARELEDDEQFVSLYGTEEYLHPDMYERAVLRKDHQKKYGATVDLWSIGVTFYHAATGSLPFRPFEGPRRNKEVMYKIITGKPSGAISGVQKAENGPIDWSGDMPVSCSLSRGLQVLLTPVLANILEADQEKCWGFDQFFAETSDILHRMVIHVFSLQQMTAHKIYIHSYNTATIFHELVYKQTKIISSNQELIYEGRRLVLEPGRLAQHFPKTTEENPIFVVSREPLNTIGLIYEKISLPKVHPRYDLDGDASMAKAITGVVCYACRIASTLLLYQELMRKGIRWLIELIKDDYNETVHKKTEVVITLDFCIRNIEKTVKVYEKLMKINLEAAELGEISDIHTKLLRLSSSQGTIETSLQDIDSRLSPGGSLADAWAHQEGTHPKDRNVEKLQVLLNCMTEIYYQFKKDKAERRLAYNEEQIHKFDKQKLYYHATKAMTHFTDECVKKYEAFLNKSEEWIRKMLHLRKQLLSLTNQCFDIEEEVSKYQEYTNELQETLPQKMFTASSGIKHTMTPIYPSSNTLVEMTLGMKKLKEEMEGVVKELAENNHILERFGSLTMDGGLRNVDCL

**Q.** What does the source list for `Cc1nc(NC(=O)[C@@H](N)C(C)C)sc1-c1cnc(Cl)c(NS(=O)(=O)c2ccccc2)c1` [PI3KD-IN-015]?
**A.** KinomeScan JNK3 (JNK3): 100; KinomeScan p38-beta (p38-beta): 86; KinomeScan ABL1(T315I)-phosphorylated [1]: 98; KinomeScan NIK (NIK): 83; KinomeScan MRCKA (MRCKA): 94; KinomeScan MAP3K3 (MAP3K3): 100; KinomeScan DCAMKL2 (DCAMKL2): 100; KinomeScan RPS6KA4(Kin.Dom.2-C-terminal) [2]: 83; KinomeScan TIE1 (TIE1): 94; KinomeScan JAK1(JH2domain-pseudokinase) [3]: 100; KinomeScan SRMS (SRMS): 90; KinomeScan STK33 (STK33): 88; KinomeScan LRRK2(G2019S) (LRRK2(G2019S)): 100; KinomeScan ERK3 (ERK3): 96; KinomeScan TBK1 (TBK1): 100; KinomeScan MYLK (MYLK): 94; KinomeScan PKAC-beta (PKAC-beta): 87; KinomeScan CDKL5 (CDKL5): 87; KinomeScan PIK3CA(H1047Y) (PIK3CA(H1047Y)): 4.4; KinomeScan RIPK2 (RIPK2): 98; KinomeScan ICK (ICK): 95; KinomeScan NEK11 (NEK11): 86; KinomeScan DRAK2 (DRAK2): 70; KinomeScan PDGFRB (PDGFRB): 98; KinomeScan JAK1(JH1domain-catalytic) [4]: 92; KinomeScan DLK (DLK): 99; KinomeScan BMX (BMX): 100; KinomeScan TYK2(JH1domain-catalytic) [5]: 100; KinomeScan CAMK4 (CAMK4): 89; KinomeScan FRK (FRK): 97; KinomeScan TRPM6 (TRPM6): 100; KinomeScan PHKG2 (PHKG2): 91; KinomeScan p38-gamma (p38-gamma): 86; KinomeScan CSNK1A1 (CSNK1A1): 100; KinomeScan EGFR(L747-E749del, A750P) [6]: 100; KinomeScan AMPK-alpha2 (AMPK-alpha2): 100; KinomeScan FYN (FYN): 100; KinomeScan PAK7 (PAK7): 89; KinomeScan CSNK1A1L (CSNK1A1L): 100; KinomeScan MERTK (MERTK): 96; KinomeScan NEK5 (NEK5): 100; KinomeScan BUB1 (BUB1): 100
